Measured values taken from PubChem BioAssay (NCI).
Several values for one entry are separate records, joined by “and”; a condition that tells them apart may be missing. Equal entries are not always repeated.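 Five compound concentrations were applied to cells in 96-well plates for 48 hours; endpoints were derived by simple linear interpolation of the resulting dose-response curve. Abbreviation: GI50, concentration required for 50% inhibition of growth. Definition used: TGI = concentration required for complete inhibition of growth.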

Columns and labels:
Assay in all cases: growth of human tumour cells (NCI), 48 h
[1] = tested on: BT-549 breast
[2] = tested on: HS 578T breast
[3] = tested on: IGROV1 ovarian
[4] = tested on: NCI-H226 lung
[5] = tested on: NCI-H460 lung
[6] = tested on: NCI-H522 lung
[7] = tested on: RPMI-8226 leukemia
[8] = tested on: SF-268 CNS
[9] = tested on: SK-MEL-2 melanoma
[10] = tested on: SK-MEL-5 melanoma
[11] = tested on: U251 CNS

Row | SMILES | TGI [1] | TGI [2] | TGI [3] [µM] | TGI [4] [µM] | TGI [5] [µM] | TGI [6] | TGI [7] | TGI [8] | TGI [9] | TGI [10] | TGI [11] [µM] | GI50 [3]
1 | O=C(Nc1ccccn1)c1cc2c(cc1Cl)Sc1nccn1S2(=O)=O | > 100 µM | > 100 µM | 76.4 | 57.3 | > 100 | > 100 µM | > 100 µM | > 100 µM | 48.8 µM | 67.6 µM | > 100 | 
2 | COc1ccc(-c2cc(-c3ccncc3)nc(N)c2-c2ccc(F)cc2)cc1 | > 100 µM | > 100 µM | > 100 | > 100 | 57.6 | 27.1 µM | > 100 µM | > 100 µM | > 100 µM | > 100 µM | > 100 | 
3 | COc1ccc(/C=C/C(=O)N[C@@H]2C(=O)N3[C@@H]2SC(C)(C)[C@@H]3C(=O)O)cc1OC | > 100 µM | > 100 µM |  | > 100 | > 100 | > 100 µM | > 100 µM | > 100 µM | > 100 µM | > 100 µM | > 100 | 
4 | Cc1csc(CP(=O)(OC(C)C)OC(C)C)n1 | > 100 µM | > 100 µM | > 100 | > 100 | > 100 | > 100 µM | > 100 µM | > 100 µM | > 100 µM | > 100 µM | > 100 | 
5 | COc1ccc(-c2c(C#N)c(N)n(C3OC(COC(C)=O)C(OC(C)=O)C(OC(C)=O)C3OC(C)=O)c(=S)c2C#N)cc1 (configuration not stated) | 89.3 µM and 72 µM | 83 µM and > 100 µM | > 100 | > 100 | > 100 | > 100 µM and 52.6 µM | > 100 µM and 68.8 µM | > 100 µM and 88.3 µM | > 100 µM and 39.8 µM | > 100 µM and 56.4 µM | > 100 | > 100 µM and 31.6 µM
6 | FC(F)(F)c1ccc(N=NN2CCCC2)cc1 | > 100 µM | > 100 µM | > 100 | > 100 | > 100 | > 100 µM | > 100 µM | > 100 µM | > 100 µM | > 100 µM | > 100 | 
7 | C=CCOC1=C(OC(C)=O)C(C2COC(C)(C)O2)OC1=O (configuration not stated) | 60.1 µM | > 100 µM | > 100 | > 100 | 61.4 | 5.45 µM | 61 µM | > 100 µM | > 100 µM | 33.6 µM | 72.5 | 
8 | O=c1oc2ccc([N+](=O)[O-])cc2cc1-c1csc(-c2ccccc2)n1 | > 100 µM | > 100 µM | > 100 | > 100 | > 100 | > 100 µM | > 100 µM | > 100 µM | > 100 µM | > 100 µM | > 100 | 
9 | Cc1nc2ccccc2n1Cc1ccc(NC(=S)NC2CCCCC2)cc1 | > 100 µM | > 100 µM | > 100 | > 100 | > 100 | > 100 µM | > 66.4 µM | > 100 µM | > 100 µM | > 51.4 µM | > 100 | 
10 | CCOC1=NC(C(F)(F)F)(C(F)(F)F)N=C(/N=C(/N)N(C)C(C(C)C)P(=O)(OC(C)C)OC(C)C)O1 (configuration not stated) | > 100 µM | > 100 µM | > 100 | > 100 | > 100 | 93.3 µM | > 100 µM | > 100 µM | > 100 µM | > 100 µM | > 100 | 
11 | COc1ccc(/C=C2/C(=O)C(c3ccccc3)N(c3ccccc3)C2=O)cc1OC (configuration not stated) | > 10 µM | > 10 µM | 2.28 | > 10 | > 10 | > 10 µM | > 10 µM | > 10 µM | > 10 µM | 0.307 µM | > 10 | 
12 | O=C1CSC2(CC(/C=C/c3ccccc3[N+](=O)[O-])=NN2c2cccc(S(=O)(=O)O)c2)N1c1nc2ccccc2s1 (configuration not stated) | 33.1 µM | > 75 µM | 36.1 | 44.1 | 52.7 | 22.1 µM | 43.5 µM | 41.1 µM | 35.4 µM | > 75 µM | 33.6 | 
13 | CC(=O)Nc1ccc2cc3c(nc2n1)c1cccnc1n3S(=O)(=O)c1ccccc1 | > 100 µM | > 100 µM | > 100 | > 100 | > 100 | > 100 µM | > 100 µM | > 100 µM | > 100 µM | > 100 µM | > 100 | 
14 | CC1=NN(c2cccc(S(=O)(=O)O)c2)C2(C1)SCC(=O)N2c1nc2ccccc2s1 (configuration not stated) | > 100 µM | > 100 µM | > 100 | > 100 | > 100 | > 100 µM | > 100 µM | > 100 µM | > 100 µM | > 100 µM | > 100 | 
15 | C=C(C)[C@H]1C=C[C@@H](OC(C)=O)[C@@]2(COC(C)=O)[C@H](OC(=O)CCC)[C@H]3[C@@H](OC(C)=O)[C@@H](C)C[C@]3(O)C(=O)[C@@](C)(OC(C)=O)[C@H]12 | > 100 µM | > 100 µM | > 100 | > 100 | > 100 | > 100 µM | 66.7 µM | > 100 µM | > 100 µM | > 100 µM | > 100 | 
16 | O=C1N(c2ccccc2)N=C2c3ccncc3C3=NN(c4ccccc4)C(=O)C123 (configuration not stated) | > 100 µM | > 100 µM | > 100 | > 100 | > 100 | > 100 µM | > 100 µM | > 100 µM | > 100 µM | > 47 µM | > 100 | 
17 | COc1ccc(C2=Nn3c(C)nnc3S/C2=C\c2ccc(-c3ccc([N+](=O)[O-])cc3)o2)cc1 | 19 µM | > 100 µM | 42.7 | 46.2 | 39.5 | 23.8 µM | 15.5 µM | 47.1 µM | 40.8 µM | 34.4 µM | 45.8 | 
18 | O=C(CCCN1CCC(Nc2ccc(F)cc2)(c2nnnn2C2CCCCC2)CC1)c1ccc(F)cc1 | 33.1 µM | 46.3 µM | 12.3 | 36 | > 100 | 29.8 µM | 34.4 µM | 33.9 µM | 40.7 µM | 42 µM | 29.2 | 
19 | O=[N+]([O-])C(=C(\Cl)NCCO)/C(Cl)=C(/Cl)Br | 4.2 µM | 28 µM | 10.6 | 17.7 | 10.8 | 2.88 µM | 6.14 µM | 4.56 µM | 4.14 µM | 7.3 µM | 6.27 | 
20 | CCOC(=O)C1=CN(Cc2ccccc2)C2ON=C(c3ccc(Cl)cc3)C2C1 (configuration not stated) | > 56.4 µM | 21.7 µM | > 50.5 | > 74.3 | > 65 | > 49.6 µM | > 100 µM | > 66.3 µM | 38.6 µM | > 65 µM | 30.7 | 
21 | CCOC(=O)C(C(=O)OCC)C(=S)NC1OC(COC(C)=O)C(OC(C)=O)C(OC(C)=O)C1OC(C)=O (configuration not stated) | > 100 µM | > 100 µM | > 100 | > 100 | > 100 | > 100 µM | > 100 µM | > 100 µM | > 100 µM | > 100 µM | > 100 | 
22 | Nc1nc(=O)n(C2CC(O)C(CO)O2)c2nc(-c3ccc(-c4ccccc4)cc3)cnc12 (configuration not stated) | > 100 µM | 93.9 µM | > 100 | 64.9 | > 100 | 48.9 µM | > 100 µM | 79 µM | > 100 µM | > 100 µM | 42.6 | 
23 | COc1ccc2oc(=O)c(-c3nc4ccccc4s3)cc2c1 | > 100 µM | > 95.8 µM | 38.9 | > 63.1 | > 100 | > 100 µM | > 100 µM | > 100 µM | > 100 µM | > 100 µM | > 49.6 | 
24 | COC(=O)/C=C/[C@H]1[C@H](C)N1S(=O)(=O)c1ccc(C)cc1 (some centres not stated) | > 100 µM | > 100 µM | > 100 | > 100 | > 100 | > 100 µM | > 100 µM | > 100 µM | > 100 µM | > 100 µM | > 100 | 
25 | CSc1c(C#N)c(=O)n(N)c2n[nH]c(C)c12 | > 100 µM | > 100 µM |  | > 100 | > 100 | > 100 µM | > 100 µM | > 100 µM | > 100 µM | > 100 µM | > 100 | 
26 | [B]C(=O)NC(CC(C)C)C(=O)NC1c2ccsc2C(=O)C1O (configuration not stated) (tested in a mixture with another compound) | > 100 µM | > 100 µM | > 100 | > 100 | > 100 | > 100 µM | > 100 µM | > 100 µM | > 100 µM | > 100 µM | > 100 | 
27 | O=C1CN2CCN(CC2)CC(=O)Nc2ccc(cc2)S(=O)(=O)c2ccc(cc2)NC(=O)CN2CCN(CC2)CC(=O)Nc2ccc(cc2)S(=O)(=O)c2ccc(cc2)N1 | > 87.9 µM | > 100 µM | > 100 | > 100 | 38.4 | 22.1 µM | > 80.8 µM | 38.7 µM | > 92.3 µM | > 100 µM | > 94.3 | 
28 | CC1(C)C/C=C\CCC(O)C(O)CCC(C)(C)C1=O (configuration not stated) | > 100 µM | > 100 µM | > 100 | > 100 | > 100 | > 100 µM | > 100 µM | > 100 µM | > 100 µM | > 100 µM | > 100 | 
